Patent US10022376B2 (Pfizer Inc., priority 2014, dated 2018)
Where a name gives a salt, the structure may show the parent alone.

system: rhIFNγ stimulated STAT-3 phosphorylation in the A549 human epithelial cell line; experiment: A549 Cell Assay: Inhibition of pSTAT3; type: cell-based; conditions: A549 cells
Protocol: A549 Cell Assay: Inhibition of pSTAT3
An assay measuring the efficacy of JAK inhibitors on the functional response of recombinant human interferon γ (rhIFNγ) stimulated STAT-3 phosphorylation in the A549 human epithelial cell line.
A549 cells (ATCC #CCL-185), were plated at 30,000 cells/well in 96 well flat bottomed tissue culture plates (BD#353072) in 200 μL of growth medium (DMEM, Pfizer media prep, with 10% Fetal Bovine Serum, Sigma #F4135, 2 mM L-Glutamine, Pfizer media prep, 100 U/mL penicillin, Pfizer media prep, and 200 μg/ml streptomycin, Pfizer media prep), and cultured at 37° C., 5% CO2 incubator for 18 hours. Growth medium was removed by vacuum aspiration (V&P Scientific #vp187 bp-60), and 90 μL of pre-warmed assay medium (DMEM with 0.2% BSA, Miltenyi #130-091-376) was added to each well and incubated for 15 minutes at 37° C. 10 μL of vehicle control or test compound (final concentration range of 0.3 nM to 10 μM with 0.1% DMSO) was added to the cells. Plates were incubated at 37° C. for 1 hour. After compound incubation, 10 μL of 220 ng/mL recombinant human IFNγ (R&D Systems #285-IF, final rhIFNγ concentration of 20 ng/mL) was added to the cells and plates were incubated for 30 minutes at 37° C. Wells containing A549 cells, medium with 0.1% DMSO and no rhIFNγ were used as background controls. After rhIFNγ stimulation, media was aspirated from each well and 35 μL/well of iced-cold MSD lysis buffer containing protease and phosphatase inhibitors from Phospho-STAT3 Tyr705 assay kit (Meso-Scale Discovery #K150DID) was added to each well. Plates were incubated at 4° C. with shaking for 30 minutes. Cell lysates were assayed following the MSD Phospho-STAT3 Tyr705 assay kit protocol to detect pSTAT3.
Data were collected and transformed into percent inhibition and calculated using the following formula: […]

| IC50 [nM] | Structure (SMILES) |
| --- | --- |
| 126 | CNC(=O)c1n[nH]c2nc(-c3cc(F)c(O)cc3CC(F)(F)F)nc(NCc3ccccc3N(C)S(C)(=O)=O)c12 [Example 94] |

same assay, conditions: Homo sapiens; A549 cells

| Structure (SMILES) | IC50 [nM] |
| --- | --- |
| CCN(c1ccc(O)cc1CNc1nc(-c2cc(F)c(O)cc2CC(F)(F)F)cc2[nH]nc(C(N)=O)c12)S(=O)(=O)c1ccccc1 [Example 43, 4-({2-[ethyl(phenylsulfonyl)amino]-5-hydroxybenzyl}amino)-6-[5-fluoro-4-hydroxy-2-(2,2,2-trifluoroethyl)phenyl]-1H-pyrazolo[4,3-c]pyridine-3-carboxamide] | 764 |
| CNC(=O)c1n[nH]c2cc(-c3cc(F)c(O)cc3CC(F)(F)F)nc(NCc3ccccc3N(C)S(=O)(=O)c3cccnc3)c12 [Example 68, 6-[5-fluoro-4-hydroxy-2-(2,2,2-trifluoroethyl)phenyl]-N-methyl-4-({2-[methyl(pyridin-3-ylsulfonyl)amino]benzyl}amino)-1H-pyrazolo[4,3-c]pyridine-3-carboxamide] | 43.9 |
| CCc1cc(O)c(F)cc1-c1cc2[nH]nc(C(=O)NC)c2c(NCC(C)C)n1 [Example 5, 6-(2-ethyl-5-fluoro-4-hydroxyphenyl)-N-methyl-4-[(2-methylpropyl)amino]-1H-pyrazolo[4,3-c]pyridine-3-carboxamide] | 1.7 |
| CNC(=O)c1n[nH]c2cc(-c3cc(F)c(O)cc3CC(F)(F)F)nc(NCc3ccccc3N(C)S(=O)(=O)CCOC)c12 [Example 60, 6-[5-fluoro-4-hydroxy-2-(2,2,2-trifluoroethyl)phenyl]-4-[(2-{[(2-methoxyethyl)sulfonyl](methyl)amino}benzyl)amino]-N-methyl-1H-pyrazolo[4,3-c]pyridine-3-carboxamide] | 34.4 |
| CNC(=O)c1n[nH]c2cc(-c3cc(F)c(O)cc3CC(F)(F)F)nc(NCC3CCCC3)c12 [Example 17, 4-[(cyclopentylmethyl)amino]-6-[5-fluoro-4-hydroxy-2-(2,2,2-trifluoroethyl)phenyl]-N-methyl-1H-pyrazolo[4,3-c]pyridine-3-carboxamide] | 174 |
| CNC(=O)c1n[nH]c2cc(-c3cc(F)c(O)cc3CC(F)(F)F)nc(NCc3ccccc3N(C)S(=O)(=O)c3cn[nH]c3)c12 [Example 58, 6-(5-fluoro-4-hydroxy-2-(2,2,2-trifluoroethyl)phenyl)-N-methyl-4-((2-(N-methyl-1H-pyrazole-4-sulfonamido)benzyl)amino)-1H-pyrazolo[4,3-c]pyridine-3-carboxamide] | 174 |
| CN(c1ncc(Cl)cc1CNc1nc(-c2cc(F)c(O)cc2CC(F)(F)F)cc2[nH]nc(C(N)=O)c12)S(C)(=O)=O [Example 72, 4-[({5-chloro-2-[methyl(methylsulfonyl)amino]pyridin-3-yl}methyl)amino]-6-[5-fluoro-4-hydroxy-2-(2,2,2-trifluoroethyl)phenyl]-1H-pyrazolo[4,3-c]pyridine-3-carboxamide] | 94.1 |
| CCN(c1ccc(O)cc1CNc1nc(-c2cc(F)c(O)cc2CC(F)(F)F)cc2[nH]nc(C(=O)NC)c12)S(C)(=O)=O [Example 34, 4-({2-[ethyl(methylsulfonyl)amino]-5-hydroxybenzyl}amino)-6-[5-fluoro-4-hydroxy-2-(2,2,2-trifluoroethyl)phenyl]-N-methyl-1H-pyrazolo[4,3-c]pyridine-3-carboxamide] | 301 |
| CN(c1ccccc1CNc1nc(-c2cc(F)c(O)cc2C2CC2)cc2[nH]nc(C(N)=O)c12)S(C)(=O)=O [Example 47, 6-(2-cyclopropyl-5-fluoro-4-hydroxyphenyl)-4-({2-[methyl(methylsulfonyl)amino]benzyl}amino)-1H-pyrazolo[4,3-c]pyridine-3-carboxamide] | 282 |
| CCc1cc(O)c(F)cc1-c1cc2[nH]nc(C(=O)NC)c2c(NCc2c(F)cccc2N(C)S(C)(=O)=O)n1 [Example 8, 6-(2-ethyl-5-fluoro-4-hydroxyphenyl)-4-({2-fluoro-6-[methyl(methylsulfonyl)amino]benzyl}amino)-N-methyl-1H-pyrazolo[4,3-c]pyridine-3-carboxamide] | 6.4 |
| CN(c1ccc(O)cc1CNc1nc(-c2cc(F)c(O)cc2CC(F)(F)F)cc2[nH]nc(C(N)=O)c12)S(=O)(=O)c1ccccc1 [Example 42, 6-[5-fluoro-4-hydroxy-2-(2,2,2-trifluoroethyl)phenyl]-4-({5-hydroxy-2-[methyl(phenylsulfonyl)amino]benzyl}amino)-1H-pyrazolo[4,3-c]pyridine-3-carboxamide] | 645 |
| Cc1ccc(S(=O)(=O)N(C)c2ccccc2CNc2nc(-c3cc(F)c(O)cc3CC(F)(F)F)cc3[nH]nc(C(N)=O)c23)cn1 [Example 70, 6-[5-fluoro-4-hydroxy-2-(2,2,2-trifluoroethyl)phenyl]-4-[(2-{methyl[(6-methylpyridin-3-yl)sulfonyl]amino}benzyl)amino]-1H-pyrazolo[4,3-c]pyridine-3-carboxamide] | 46.2 |
| CCN(c1ccccc1CNc1nc(-c2cc(F)c(O)cc2CC(F)(F)F)cc2[nH]nc(C(=O)NC)c12)S(=O)(=O)CC [Example 1, 4-({2-[Ethyl(ethylsulfonyl)amino]benzyl}amino)-6-[5-fluoro-4-hydroxy-2-(2,2,2-trifluoroethyl)phenyl]-N-methyl-1H-pyrazolo[4,3-c]pyridine-3-carboxamide] | 67.4 |
| CCN(c1ncc(F)cc1CNc1nc(-c2cc(F)c(O)cc2CC(F)(F)F)cc2[nH]nc(C(N)=O)c12)S(C)(=O)=O [Example 79, 4-[({2-[ethyl(methylsulfonyl)amino]-5-fluoropyridin-3-yl}methyl)amino]-6-[5-fluoro-4-hydroxy-2-(2,2,2-trifluoroethyl)phenyl]-1H-pyrazolo[4,3-c]pyridine-3-carboxamide] | 30.7 |
| CN(c1ncc(F)cc1CNc1nc(-c2cc(F)c(O)cc2CC(F)(F)F)cc2[nH]nc(C(N)=O)c12)S(C)(=O)=O [Example 78, 6-[5-Fluoro-4-hydroxy-2-(2,2,2-trifluoroethyl)phenyl]-4-[({5-fluoro-2-[methyl(methyl-sulfonyl)amino]pyridin-3-yl}methyl)amino]-1H-pyrazolo[4,3-c]pyridine-3-carboxamide] | 27.2 |

The next lines start with the values.

| IC50 [nM] | Structure (SMILES) |
| --- | --- |
| 3.3 | CCc1cc(O)c(F)cc1-c1cc2[nH]ncc2c(NCc2ccccc2N(C)S(=O)(=O)CC)n1 [Example 135, N-[2-({[6-(2-ethyl-5-fluoro-4-hydroxyphenyl)-1H-pyrazolo[4,3-c]pyridin-4-yl]amino}methyl)-phenyl]-N-methylethanesulfonamide hydrochloride] |
| 133 | Oc1cc(CC(F)(F)F)c(-c2nc(NCCC3CC3)c3cn[nH]c3n2)cc1F [Example 152, 4-{4-[(2-cyclopropylethyl)amino]-1H-pyrazolo[3,4-d]pyrimidin-6-yl}-2-fluoro-5-(2,2,2-trifluoroethyl)phenol] |
| > 10000 | CN(c1ccc(O)cc1CNc1nc(-c2cc(F)c(O)cc2CC(F)(F)F)nc2[nH]nc(-c3nnc(C4CCN(C(N)=O)CC4)[nH]3)c12)S(C)(=O)=O [Example 167, 4-(5-{6-[5-Fluoro-4-hydroxy-2-(2,2,2-trifluoroethyl)phenyl]-4-({5-hydroxy-2-[methyl(methylsulfonyl)amino]benzyl}amino)-1H-pyrazolo[3,4-d]pyrimidin-3-yl}-4H-1,2,4-triazol-3-yl)piperidine-1-carboxamide] |
| 59.9 | CCc1cc(O)c(F)cc1-c1nc(NCc2ccccc2N(C)S(=O)(=O)c2ccccc2)c2c(C(N)=O)n[nH]c2n1 [Example 95, 6-(2-Ethyl-5-fluoro-4-hydroxyphenyl)-4-((2-(N-methylphenylsulfonamido)benzyl)amino)-1H-pyrazolo[3,4-d]pyrimidine-3-carboxamide] |
| 133 | Oc1cc(CC(F)(F)F)c(-c2nc(NCC3CC3)c3cn[nH]c3n2)cc1F [Example 151, 4-{4-[(cyclopropylmethyl)amino]-1H-pyrazolo[3,4-d]pyrimidin-6-yl}-2-fluoro-5-(2,2,2-trifluoroethyl)phenol] |
| 2520 | CNC(=O)c1n[nH]c2nc(-c3cc(F)c(O)cc3CC(F)(F)F)nc(NCc3cc(O)ccc3N(C)S(=O)(=O)c3ccccc3)c12 [Example 106, 4-((2-(N-Methylphenylsulfonamido)-5-hydroxybenzyl)amino)-6-(5-fluoro-4-hydroxy-2-(2,2,2-trifluoroethyl)phenyl)-N-methyl-1H-pyrazolo[3,4-d]pyrimidine-3-carboxamide] |
| 62.4 | CCc1cc(O)c(F)cc1-c1cc2[nH]ncc2c(N(CCc2ccc(OC)c(OC)c2)Cc2ccccc2N(C)S(C)(=O)=O)n1 [Example 129, N-[2-({[2-(3,4-dimethoxyphenyl)ethyl][6-(2-ethyl-5-fluoro-4-hydroxyphenyl)-1H-pyrazolo[4,3-c]pyridin-4-yl]amino}methyl)phenyl]-N-methylmethanesulfonamide hydrochloride] |
| 14.9 | CN(c1ccccc1CNc1nc(-c2cc(F)c(O)cc2CC(F)(F)F)cc2[nH]ncc12)S(C)(=O)=O [Example 148, N-{2-[({6-[5-Fluoro-4-hydroxy-2-(2,2,2-trifluoroethyl)phenyl]-1H-pyrazolo[4,3-c]pyridin-4-yl}amino)methyl]phenyl}-N-methylmethanesulfonamide] |
